Measured values published in patent publication US7420001B2 (Wyeth, priority 2003, dated 2008).

Experiments:
MMP-2 = target: T1, MMP-2 (Homo sapiens, UniProt P08253); experiment: In-vitro fluorescence assay of MMP-2 activity; assay type: biochemical; conditions: recombinant human MMP-2; read-out: MMP-2 IC50
T1 construct: purchased Oncogene Research Products (Calbiochem) PF023
T1 sequence (P08253 110-660): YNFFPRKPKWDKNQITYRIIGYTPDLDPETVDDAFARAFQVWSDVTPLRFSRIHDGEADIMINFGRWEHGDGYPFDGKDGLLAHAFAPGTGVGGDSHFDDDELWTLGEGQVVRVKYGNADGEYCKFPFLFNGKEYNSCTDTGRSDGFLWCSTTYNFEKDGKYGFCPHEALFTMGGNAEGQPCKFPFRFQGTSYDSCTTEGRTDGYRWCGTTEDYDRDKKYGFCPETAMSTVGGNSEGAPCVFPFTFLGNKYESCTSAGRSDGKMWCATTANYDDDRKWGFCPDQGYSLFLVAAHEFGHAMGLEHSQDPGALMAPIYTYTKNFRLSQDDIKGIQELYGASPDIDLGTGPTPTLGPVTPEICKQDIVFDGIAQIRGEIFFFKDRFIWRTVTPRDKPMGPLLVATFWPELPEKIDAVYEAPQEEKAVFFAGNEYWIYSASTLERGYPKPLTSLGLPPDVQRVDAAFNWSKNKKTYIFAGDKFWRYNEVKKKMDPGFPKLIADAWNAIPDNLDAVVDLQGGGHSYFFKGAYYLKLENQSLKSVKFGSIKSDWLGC

MMP-13 = target: T2, MMP-13 (Homo sapiens, UniProt P45452); experiment: In-vitro fluorescence assay of MMP-13 activity; assay type: biochemical; conditions: recombinant human catalytic domain of MMP-13; read-out: MMP-13 IC50
T2 construct: made in house
Procedure: A continuous assay was used in which the substrate is a synthetic peptide containing a fluorescent group (7-methoxycoumarin; Mca) which is quenched by energy transfer to a 2,4-dinitrophenyl group. […] The substrate used was Mca-PQGL-(3-[2,4-dinitrophenyl]-L-2,3-diaminopropionyl)-AR-OH (denoted as Wammp-5, custom synthesized by AnaSpec, Inc.). The assay buffer consisted of 50 mM Hepes (pH 7.4), 100 mM NaCl, 5 mM CaCl2, and 0.005% Brij-35. Each well of black polystyrene 96-well plates contained a 200 μL reaction mixture consisting of assay buffer, purified MMP (final concentration of 0.5 nM, prepared by diluting with the assay buffer), and varied concentrations of inhibitor (prepared by serially diluting a given inhibitor in DMSO in 96-well polypropylene plate). […] The enzymatic reactions were initiated by adding the substrate to a final concentration of 20 μM, and mixing 10 times with a pipette. The final DMSO concentration in the assay was 6.0%.
Plots of the inhibitor concentration vs. the percent inhibition were fit to the following equation: y=(a−d)/[1+(x/c)^b]+d, a general sigmoidal curve with Hill slope, a to d. x is the inhibitor concentration under test. y is the percent inhibition. a is the limiting response as x approaches zero. As x increases without bound, y tends toward its limit d. c is the inflection point (IC50) for the curve. That is, y is halfway between the lower and upper asymptotes when x=c. b is the slope factor or Hill coefficient.

Structure (SMILES)	IC50 (MMP-2) [nM]	IC50 (MMP-13) [nM]
CC(C)[C@H](NS(=O)(=O)c1ccc(-c2ccc(NC(=O)c3cc4cc(NS(=O)(=O)c5ccccc5)ccc4o3)cc2)cc1)C(=O)O [Example 10, 4′-[(5-Benzenesulfonylamino-benzofuran-2-carbonyl)-amino]-biphenyl-4-sulfonyl-L-valine]	19	3.4
Cc1c(C(=O)Nc2ccc(-c3ccc(S(=O)(=O)N[C@H](C(=O)O)C(C)C)cc3)cc2)oc2cccc(C(O)CO)c12 (stereo partly drawn) [Example 97, N-{[4′-({[4-(1,2-dihydroxyethyl)-3-methyl-1-benzofuran-2-yl]carbonyl}amino)-1,1′-biphenyl-4-yl]sulfonyl}-L-valine]	2860	14
COC/C=C\c1cccc2oc(C(=O)Nc3ccc(-c4ccc(S(=O)(=O)N[C@H](C(=O)O)C(C)C)cc4)cc3)c(C)c12 [Example 25, L-2-(4′-{[4-(3-Methoxy-Z-propenyl)-3-methyl-benzofuran-2-carbonyl]-amino}-biphenyl-4-sulfonylamino)-3-methyl-butyric acid]	6320	14
Cc1c(C(=O)Nc2ccc(-c3ccc(S(=O)(=O)N[C@H](C(=O)O)C(C)C)cc3)cc2)oc2ccc(Br)cc12 [Example 45, 2-{4′-[(5-Bromo-3-methyl-benzofuran-2-carbonyl)-amino]-biphenyl-4-sulfonylamino}-3-methyl-butyric acid]	81	3
CC(C)[C@H](NS(=O)(=O)c1ccc(-c2ccc(NC(=O)c3nc4cc(C(F)(F)F)ccc4s3)cc2)cc1)C(=O)O [Example 131, (S)-3-Methyl-2-{4′-[(5-trifluoromethyl-benzothiazole-2-carbonyl)-amino]-biphenyl-4-sulfonylamino}-butyric acid]	149	17
Cc1c(C(=O)Nc2ccc(-c3ccc(S(=O)(=O)N[C@H](C(=O)O)C(C)C)cc3)cc2)oc2cccc(NS(=O)(=O)c3cccs3)c12 [Example 72, L-3-Methyl-2-(4′-{[3-methyl-4-(thiophene-2-sulfonylamino)-benzofuran-2-carbonyl]-amino}-biphenyl-4-sulfonylamino)-butyric acid]	3980	8.5
Cc1c(C(=O)Nc2ccc(-c3ccc(S(=O)(=O)N[C@H](C(=O)O)C(C)C)cc3)cc2)oc2cccc(C#CCO)c12 [Example 26, L-2-(4′-{[4-(3-Hydroxy-prop-1-ynyl)-3-methyl-benzofuran-2-carbonyl]-amino}-biphenyl-4-sulfonylamino)-3-methyl-butyric acid]	3380	6.2
Cc1c(C(=O)Nc2ccc(-c3ccc(S(=O)(=O)N[C@H](C(=O)O)C(C)C)cc3)cc2)oc2cccc(CO)c12 [Example 92, N-{[4′-({[4-(Hydroxymethyl)-3-methyl-1-benzofuran-2-yl]carbonyl}amino)-1,1′-biphenyl-4-yl]sulfonyl}-L-valine]	3760	25
Cc1c(C(=O)Nc2ccc(-c3ccc(S(=O)(=O)N[C@H](C(=O)O)C(C)C)cc3)cc2)oc2cccc(OCc3ccccn3)c12 [Example 178, (S)-3-Methyl-2-(4′-{[3-methyl-4-(pyridin-2-ylmethoxy)-benzofuran-2-carbonyl]-amino}-biphenyl-4-sulfonylamino)-butyric acid]	3320	13
Cc1c(C(=O)Nc2ccc(-c3ccc(S(=O)(=O)N[C@H](C(=O)O)C(C)C)cc3)cc2)oc2cccc(OCC(=O)N(C)C)c12 [Example 176, (S)-2-{4′-[(4-Dimethylcarbamoylmethoxy-3-methyl-benzofuran-2-carbonyl)-amino]-biphenyl-4-sulfonylamino}-3-methyl-butyric acid]	4340	20
COc1c(Cl)ccc2oc(COc3ccc(-c4ccc(S(=O)(=O)N[C@H](C(=O)O)C(C)C)cc4)cc3)c(C)c12 [Example 142, L-2-[4′-(5-Chloro-4-methoxy-3-methylbenzofuran-2-ylmethoxy)-biphenyl-4-sulfonylamino]-3-methyl butyric acid]	130	2.1
Cc1c(C(=O)Nc2ccc(-c3ccc(S(=O)(=O)N(C)[C@H](C(=O)O)C(C)C)cc3)cc2)oc2cccc(NS(C)(=O)=O)c12 [Example 64, L-2-({4′-[(4-Methanesulfonylamino-3-methyl-benzofuran-2-carbonyl)-amino]-biphenyl-4-sulfonyl}-methyl-amino)-3-methyl-butyric acid]	6940	63
CC(C)[C@H](NS(=O)(=O)c1ccc(-c2ccc(NC(=O)c3cc4cc(Br)ccc4o3)cc2)cc1)C(=O)O [Example 84, N-[(4′-{[(5-Bromo-1-benzofuran-2-yl)carbonyl]amino}-1,1′-biphenyl-4-yl)sulfonyl]-L-valine]	0.9	0.6
Cc1c(C(=O)Nc2ccc(-c3ccc(S(=O)(=O)N[C@H](C(=O)O)C(C)C)cc3)nc2)oc2cccc(NS(C)(=O)=O)c12 [Example 39, L-2-(4-{5-[(4-Methanesulfonylamino-3-methyl-benzofuran-2-carbonyl)-amino]-pyridin-2-yl}-benzenesulfonylamino)-3-methyl-butyric acid]	7500	30
Cc1c(C(=O)Nc2ccc(-c3ccc(S(=O)(=O)N[C@H](C(=O)O)C(C)C)cc3)cc2)oc2cccc(C#CC(C)(C)C)c12 [Example 34, L-2-(4′-{[4-(3,3-Dimethyl-but-1-ynyl)-3-methyl-benzofuran-2-carbonyl]-amino}-biphenyl-4-sulfonylamino)-3-methyl-butyric acid]	2500	152
Cc1c(C(=O)Nc2ccc(-c3ccc(S(=O)(=O)N[C@H](C(=O)O)C(C)C)cc3)cc2)oc2cccc(OC(C)C)c12 [Example 108, (S)-2-{4′-[(4-Isopropoxy-3-methyl-benzofuran-2-carbonyl)-amino]-biphenyl-4-sulfonylamino}-3-methyl-butyric acid]	4290	13
CC(C)[C@H](NS(=O)(=O)c1ccc(-c2ccc(NC(=O)c3nc4ccccc4o3)cc2)cc1)C(=O)O [Example 127, (S)-3-Methyl-2-{4′-[(benzooxazole-2-carbonyl)-amino]-biphenyl-4-sulfonylamino}-butyric acid]	47	0.8
CCCOc1cccc2oc(C(=O)Nc3ccc(-c4ccc(S(=O)(=O)N[C@H](C(=O)O)C(C)C)cc4)cc3)c(C)c12 [Example 107, (S)-3-Methyl-2-{4′-[(3-methyl-4-propoxy-benzofuran-2-carbonyl)-amino]-biphenyl-4-sulfonylamino}-butyric acid]	4220	11
Cc1c(C(=O)Nc2ccc(-c3ccc(S(=O)(=O)N(C)[C@H](C(=O)O)C(C)C)cc3)cc2)oc2cccc(C#N)c12 [Example 42, L-2-({4′-[(4-Cyano-3-methyl-benzofuran-2-carbonyl)-amino]-biphenyl-4-sulfonyl}-methyl-amino)-3-methyl-butyric acid]	1590	41
Cc1c(C(=O)Nc2ccc(-c3ccc(S(=O)(=O)N[C@H](C(=O)O)C(C)C)cc3)cc2)oc2cccc(N)c12 [Example 61, L-2-{4′-[(4-Amino-3-methyl-benzofuran-2-carbonyl)-amino]-biphenyl-4-sulfonylamino}-3-methyl-butyric acid]	323	4.3
Cc1c(C(=O)Nc2ccc(-c3ccc(S(=O)(=O)N[C@H](C(=O)O)C(C)C)cc3)cc2)oc2ccc3ccccc3c12 [Example 154, L-3-Methyl-2-{4′-[(1-methyl-naphtho[2,1-b]furan-2-carbonyl)-amino]-biphenyl-4-sulfonylamino}-butyric acid]	60	1.7
Cc1c(C(=O)Nc2ccc(-c3ccc(S(=O)(=O)N[C@H](C(=O)O)C(C)C)cc3)cc2)oc2cccc(OCC(=O)O)c12 [Example 159, L-2-{4′-[(4-Carboxymethoxy-3-methyl-benzofuran-2-carbonyl)-amino]-biphenyl-4-sulfonylamino}-3-methyl-butyric acid]	3520	8.5
CC(C)[C@H](NS(=O)(=O)c1ccc(-c2ccc(NC(=O)c3cc4cc(Cl)ccc4o3)cc2)cc1)C(=O)O [Example 4]	4.1	0.3
COC(=O)C(C)(C)Oc1cccc2oc(C(=O)Nc3ccc(-c4ccc(S(=O)(=O)N[C@H](C(=O)O)C(C)C)cc4)cc3)c(C)c12 [Example 156, L-2-(4′-{[4-(1-Methoxycarbonyl-1-methyl-ethoxy)-3-methyl-benzofuran-2-carbonyl]-amino}-biphenyl-4-sulfonylamino)-3-methyl-butyric acid]	6200	25
Cc1c(C(=O)Nc2ccc(-c3ccc(S(=O)(=O)N[C@H](C(=O)O)C(C)C)cc3)cc2)oc2cccc(CCCO)c12 [Example 27, L-2-(4′-{[4-(3-Hydroxy-propyl)-3-methyl-benzofuran-2-carbonyl]-amino}-biphenyl-4-sulfonylamino)-3-methyl-butyric acid]	4410	7.1
CC(C)[C@H](NS(=O)(=O)c1ccc(-c2ccc(NC(=O)c3nc4ccccc4[nH]3)cc2)cc1)C(=O)O [Example 52, L-2-{4′-[(1H-Benzoimidazole-2-carbonyl)-amino]-biphenyl-4-sulfonylamino}-3-methyl-butyric acid]	0.4	0.4
